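Following 48 hours of exposure in 96-well plates, responses at five concentrations were used to interpolate endpoints linearly. GI50 marks 50% less growth.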 Calls of active or inactive are those of the source. Cut-off read from the data, not from the text of the source: active = GI50 up to about 1.1 µM and inactive = higher.
What was measured:
Assay in all cases: NCI-60 cell line screen, 48 h
A549 = system: A549
SW-620 = system: SW-620
K562 = system: K562
XF498 = system: XF498
IGROV-1 = system: IGROV-1
SN12C = system: SN12C
OVCAR-3 = system: OVCAR-3
SR = system: SR
HL-60 = system: HL-60
HCC 2998 = system: HCC 2998
DMS-273 = system: DMS-273
SK-MEL-5 = system: SK-MEL-5
MOLT-4 = system: MOLT-4
DLD-1 = system: DLD-1
NCI-H226 = system: NCI-H226
EKVX = system: EKVX
TK-10 = system: TK-10
CAKI-1 = system: CAKI-1
HCT-15 = system: HCT-15
KM12 = system: KM12
OVCAR-8 = system: OVCAR-8
SK-MEL-2 = system: SK-MEL-2
786-0 = system: 786-0
HOP-18 = system: HOP-18
COLO 205 = system: COLO 205
M14 = system: M14
LXFL 529 = system: LXFL 529
SF-295 = system: SF-295
A498 = system: A498
SF-539 = system: SF-539
UO-31 = system: UO-31
SK-MEL-28 = system: SK-MEL-28
RPMI-8226 = system: RPMI-8226
SK-OV-3 = system: SK-OV-3
Malme-3M = system: Malme-3M
SNB-19 = system: SNB-19
SF-268 = system: SF-268
RXF 393 = system: RXF 393
NCI-H460 = system: NCI-H460
UACC-257 = system: UACC-257
UACC-62 = system: UACC-62
ACHN = system: ACHN
OVCAR-5 = system: OVCAR-5
U-251 = system: U-251
SNB-75 = system: SNB-75
NCI-H23 = system: NCI-H23
KM-20L2 = system: KM-20L2
NCI-H522 = system: NCI-H522
LOX IMVI = system: LOX IMVI
CCRF-CEM = system: CCRF-CEM
HT-29 = system: HT-29
SNB-78 = system: SNB-78
OVCAR-4 = system: OVCAR-4
HOP-92 = system: HOP-92
DMS-114 = system: DMS-114
HCT-116 = system: HCT-116
M19-MEL = system: M19-MEL
HOP-62 = system: HOP-62

CSc1nc(-c2ccc(Cl)cc2)c(C#N)c(=O)n1C1OC(COC(C)=O)C(OC(C)=O)C(OC(C)=O)C1OC(C)=O (stereo not given)
GI50 (A549): > 100 µM (inactive) | GI50 (SW-620): > 100 µM (inactive) | GI50 (K562): > 100 µM (inactive) | GI50 (XF498): > 100 µM (inactive) | GI50 (IGROV-1): 57.1 µM (inactive) | GI50 (SN12C): > 100 µM (inactive) | GI50 (OVCAR-3): 12.6 µM (inactive) | GI50 (SR): > 100 µM (inactive) | GI50 (HL-60): > 100 µM (inactive) | GI50 (HCC 2998): > 100 µM (inactive) | GI50 (DMS-273): > 100 µM (inactive) | GI50 (SK-MEL-5): > 100 µM (inactive) | GI50 (MOLT-4): > 75 µM (inactive) | GI50 (DLD-1): > 100 µM (inactive) | GI50 (NCI-H226): 33 µM (inactive) | GI50 (EKVX): > 100 µM (inactive) | GI50 (TK-10): > 100 µM (inactive) | GI50 (CAKI-1): > 100 µM (inactive) | GI50 (HCT-15): > 100 µM | GI50 (KM12): > 100 µM (inactive) | GI50 (OVCAR-8): > 100 µM (inactive) | GI50 (SK-MEL-2): 53.8 µM (inactive) | GI50 (786-0): > 100 µM (inactive) | GI50 (HOP-18): 29.9 µM (inactive) | GI50 (COLO 205): > 100 µM (inactive)

Cn1c2cc([N+](=O)[O-])ccc2c(=O)c2c(O)cc3c(c21)C=CC(C)(C)O3
GI50 (A549): 57.4 µM (inactive) | GI50 (SW-620): > 100 µM (inactive) | GI50 (K562): > 100 µM (inactive) | GI50 (XF498): 21 µM (inactive) | GI50 (M14): > 100 µM (inactive) | GI50 (IGROV-1): 31.1 µM (inactive) | GI50 (SN12C): > 100 µM (inactive) | GI50 (LXFL 529): 28.4 µM (inactive) | GI50 (HL-60): > 100 µM (inactive) | GI50 (HCC 2998): > 100 µM (inactive) | GI50 (DMS-273): 54 µM (inactive) | GI50 (SK-MEL-5): > 100 µM (inactive) | GI50 (MOLT-4): > 100 µM (inactive) | GI50 (SF-295): 16.9 µM (inactive) | GI50 (A498): 33.5 µM (inactive) | GI50 (DLD-1): > 100 µM (inactive) | GI50 (SF-539): 14.8 µM (inactive) | GI50 (UO-31): 26.7 µM (inactive) | GI50 (EKVX): 22 µM (inactive) | GI50 (SK-MEL-28): > 100 µM (inactive) | GI50 (RPMI-8226): > 100 µM (inactive) | GI50 (SK-OV-3): 21.9 µM (inactive) | GI50 (Malme-3M): > 100 µM (inactive) | GI50 (SNB-19): 31.6 µM (inactive) | GI50 (SF-268): 35.1 µM (inactive) | GI50 (TK-10): 37.1 µM (inactive) | GI50 (RXF 393): 25.9 µM (inactive) | GI50 (NCI-H460): > 100 µM (inactive) | GI50 (UACC-257): > 100 µM (inactive) | GI50 (UACC-62): 25.1 µM (inactive) | GI50 (CAKI-1): 60.5 µM (inactive) | GI50 (ACHN): > 100 µM (inactive) | GI50 (OVCAR-5): 32 µM (inactive) | GI50 (U-251): > 100 µM (inactive) | GI50 (SNB-75): 10.1 µM (inactive) | GI50 (NCI-H23): 63.4 µM (inactive) | GI50 (HCT-15): > 100 µM | GI50 (KM12): > 100 µM (inactive) | GI50 (OVCAR-8): 59.3 µM (inactive) | GI50 (KM-20L2): > 100 µM (inactive) | GI50 (NCI-H522): 46.5 µM (inactive) | GI50 (SK-MEL-2): 40.7 µM (inactive) | GI50 (LOX IMVI): > 100 µM (inactive) | GI50 (786-0): 44.3 µM (inactive) | GI50 (CCRF-CEM): > 100 µM (inactive) | GI50 (HOP-18): < 0.01 µM (active) | GI50 (COLO 205): > 100 µM (inactive) | GI50 (HT-29): > 100 µM (inactive) | GI50 (SNB-78): 40.5 µM (inactive) | GI50 (OVCAR-4): > 100 µM (inactive)

CS(=O)(=O)OCCN(CCOS(C)(=O)=O)c1ccc(/C=N/N=c2/nc[nH]c3nc[nH]c23)cc1
GI50 (A549): 26.2 µM (inactive) | GI50 (SW-620): 16 µM (inactive) | GI50 (K562): 24.9 µM (inactive) | GI50 (XF498): 21.2 µM (inactive) | GI50 (M14): 17.6 µM (inactive) | GI50 (IGROV-1): 19.1 µM (inactive) | GI50 (SN12C): 35.2 µM (inactive) | GI50 (HOP-92): 16.9 µM (inactive) | GI50 (OVCAR-3): 13.4 µM (inactive) | GI50 (SR): 4.57 µM (inactive) | GI50 (HL-60): 6.04 µM (inactive) | GI50 (HCC 2998): 19.4 µM (inactive) | GI50 (DMS-273): 14.9 µM (inactive) | GI50 (SK-MEL-5): 15.9 µM (inactive) | GI50 (DMS-114): 10.9 µM (inactive) | GI50 (MOLT-4): 4.84 µM (inactive) | GI50 (SF-295): 14.9 µM (inactive) | GI50 (A498): 25.7 µM (inactive) | GI50 (DLD-1): 26.8 µM (inactive) | GI50 (SF-539): 18.3 µM (inactive) | GI50 (UO-31): 28.3 µM (inactive) | GI50 (NCI-H226): 19.3 µM (inactive) | GI50 (EKVX): 33.2 µM (inactive) | GI50 (SK-MEL-28): 19.3 µM (inactive) | GI50 (RPMI-8226): 15.3 µM (inactive) | GI50 (SK-OV-3): 26.2 µM (inactive) | GI50 (Malme-3M): 27 µM (inactive) | GI50 (SNB-19): 27.6 µM (inactive) | GI50 (SF-268): 12.9 µM (inactive) | GI50 (TK-10): 26.9 µM (inactive) | GI50 (HCT-116): 17.3 µM (inactive) | GI50 (RXF 393): 15.7 µM (inactive) | GI50 (NCI-H460): 7.76 µM (inactive) | GI50 (UACC-257): 19.8 µM (inactive) | GI50 (UACC-62): 12.9 µM (inactive) | GI50 (CAKI-1): 14.2 µM (inactive) | GI50 (ACHN): 17.4 µM (inactive) | GI50 (OVCAR-5): 20.6 µM (inactive) | GI50 (U-251): 16.3 µM (inactive) | GI50 (SNB-75): 14.6 µM (inactive) | GI50 (NCI-H23): 14.8 µM (inactive) | GI50 (M19-MEL): 20.5 µM (inactive) | GI50 (HCT-15): 31 µM | GI50 (KM12): 15.6 µM (inactive) | GI50 (OVCAR-8): 20.7 µM (inactive) | GI50 (KM-20L2): 21.5 µM (inactive) | GI50 (NCI-H522): 12.3 µM (inactive) | GI50 (SK-MEL-2): 20.4 µM (inactive) | GI50 (LOX IMVI): 15.1 µM (inactive) | GI50 (786-0): 16.3 µM (inactive) | GI50 (CCRF-CEM): 8.09 µM (inactive) | GI50 (HOP-18): 34.6 µM (inactive) | GI50 (COLO 205): 17.2 µM (inactive) | GI50 (HT-29): 17.8 µM (inactive) | GI50 (HOP-62): 28.2 µM (inactive) | GI50 (SNB-78): 24.2 µM (inactive) | GI50 (OVCAR-4): 22.7 µM (inactive)

O=C(/C=C/c1ccc(O)cc1)c1cc(Cl)ccc1O
GI50 (A549): 39.9 µM (inactive) | GI50 (SW-620): 35.4 µM (inactive) | GI50 (K562): 24.1 µM (inactive) | GI50 (XF498): 23.7 µM (inactive) | GI50 (M14): 55.3 µM (inactive) | GI50 (IGROV-1): 57.4 µM (inactive) | GI50 (SN12C): 42.4 µM (inactive) | GI50 (HOP-92): 85.3 µM (inactive) | GI50 (OVCAR-3): 28.2 µM (inactive) | GI50 (LXFL 529): 42.5 µM (inactive) | GI50 (SR): 16.9 µM (inactive) | GI50 (HL-60): 17.8 µM (inactive) | GI50 (HCC 2998): 62.8 µM (inactive) | GI50 (SK-MEL-5): 37.2 µM (inactive) | GI50 (DMS-114): 23.3 µM (inactive) | GI50 (MOLT-4): 16.6 µM (inactive) | GI50 (SF-295): 35.2 µM (inactive) | GI50 (A498): > 100 µM (inactive) | GI50 (DLD-1): 43.6 µM (inactive) | GI50 (SF-539): 18.8 µM (inactive) | GI50 (UO-31): 21.8 µM (inactive) | GI50 (NCI-H226): 95.9 µM (inactive) | GI50 (EKVX): 86.3 µM (inactive) | GI50 (SK-MEL-28): 44.2 µM (inactive) | GI50 (SK-OV-3): > 100 µM (inactive) | GI50 (Malme-3M): 47.2 µM (inactive) | GI50 (SNB-19): 44.9 µM (inactive) | GI50 (SF-268): 42.8 µM (inactive) | GI50 (TK-10): > 100 µM (inactive) | GI50 (HCT-116): 22.6 µM (inactive) | GI50 (RXF 393): 28.9 µM (inactive) | GI50 (NCI-H460): 50.2 µM (inactive) | GI50 (UACC-257): 71.8 µM (inactive) | GI50 (UACC-62): 40.3 µM (inactive) | GI50 (CAKI-1): > 100 µM (inactive) | GI50 (ACHN): 70.8 µM (inactive) | GI50 (U-251): 37.8 µM (inactive) | GI50 (SNB-75): 46.5 µM (inactive) | GI50 (NCI-H23): 40.5 µM (inactive) | GI50 (M19-MEL): 72.1 µM (inactive) | GI50 (KM12): > 100 µM (inactive) | GI50 (OVCAR-8): 39.4 µM (inactive) | GI50 (KM-20L2): > 100 µM (inactive) | GI50 (NCI-H522): 17.2 µM (inactive) | GI50 (LOX IMVI): 18.7 µM (inactive) | GI50 (786-0): 77.6 µM (inactive) | GI50 (CCRF-CEM): 6.32 µM (inactive) | GI50 (HOP-18): > 100 µM (inactive) | GI50 (COLO 205): > 100 µM (inactive) | GI50 (HT-29): 34.5 µM (inactive) | GI50 (HOP-62): > 100 µM (inactive) | GI50 (SNB-78): 29.9 µM (inactive) | GI50 (OVCAR-4): 38.8 µM (inactive)
